# Results reported in a melting point compilation (Tetko et al.; mined from patent text by program, amines drawn as free bases though some values may be those of a salt).
row,Compound,melting point [°C]
1,CC(Cn1ccnc1)Cn1cnc2ccc(Br)cc2c1=O (configuration not stated),159 to 162
2,Cc1cccc(C2=NN=C(c3ccccc3Cc3ccccc3)NN2)c1,162 to 163
3,CN1CCN(c2ccc(-c3cnc4c(c3)N(Cc3cc(Cl)ccc3C(F)(F)F)CCN4)cn2)CC1,226 to 227
4,COc1cc([N+](=O)[O-])c(N)cc1OC(F)F,144 to 145
5,CS(=O)(=O)c1ccc(-c2cnn(CC(=O)c3ccc(C(F)(F)F)cc3)c(=O)c2-c2ccc(F)cc2)cc1,205 to 206
6,O=C1C(CSC(=O)c2ccccc2)=C(CSC(=O)c2ccccc2)C(=O)C(CSC(=O)c2ccccc2)=C1CSC(=O)c1ccccc1,224 to 226
7,O=c1[nH]c(NCCCNc2ccccn2)ncc1Cc1ccc(Cl)cc1,168 to 171
8,COc1ccc2nc(-c3cccc(C)c3)cc(OCc3ccccc3)c2c1,133 to 134
9,CSc1nccn1-c1nc(-c2ccc(Cl)cc2)c(CCC(=O)O)o1,225 to 226
10,CC(C)(C)N1Cc2ccccc2P1(=O)c1ccccc1 (configuration not stated),89 to 91
11,Cc1cc(SC(C)C)c(NC(=O)CCCCSc2nc3ccccc3s2)c(SC(C)C)n1,107 to 109
12,Brc1ccc2c(Sc3ccccc3)c[nH]c2c1,145 to 148
13,Cc1ccc(N2C(=O)c3ccccc3C2=O)c(O)c1,251 to 254
14,CC(C)(C)NCCOp1oc2c(C(C)(C)C)cc(C(C)(C)C)cc2c2cc(C(C)(C)C)cc(C(C)(C)C)c2o1,135 to 138
15,Oc1cccc(C(O)CNCCCCn2cnc3ccccc32)c1 (configuration not stated),58 to 62
16,Nc1nc(OCC(F)(F)F)cc(C(F)(F)F)n1,108 to 110
17,COc1nnc2c(=O)c3ccccc3ccn12,149 to 150
18,Nc1nccn2c(C3CCC3)nc(-c3ccc4cccnc4c3)c12,94 to 96
19,Cc1ccc(Nc2ncccc2N)c(C)c1[N+](=O)[O-],173 to 175
20,N#Cc1ccccc1-c1nc2ncccc2o1,166 to 167
21,CCOCc1nc2c(N)nc(C)c(C)c2n1CCCNC(=O)C(C)C,179 to 180
22,CCc1nc2c(o1)C(=O)C=C(Nc1ccccc1)C2=O,200

row,Compound,melting point [°C]
1,CCOC(=O)c1c(C)nn(C)c1S(=O)(=O)NC(=S)Nc1nc(C)cc(OC)n1,157 to 158
2,COC(=O)CCCC#CCC1C(=O)CCCC1=O,108 to 110
3,OCC1(CO)Nc2cccc3cccc(c23)N1,158
4,COc1ccc([N+](=O)[O-])c(NC(C(=O)O)C(c2ccccc2)c2ccccc2)n1 (configuration not stated),172 to 180
5,CC(=O)CCC(=O)c1ccccc1,31
6,Nc1nc2cccnc2c2c1ncn2Cc1cc(-c2ccc(F)cc2)no1,265 to 266
7,CCCc1nc(NCc2ccco2)nc(Nc2cccc(C(F)(F)F)c2)n1,110 to 112
8,N#CCc1cc(C(=O)c2ccc(Cl)cc2)cn1Cc1ccccc1,102 to 104
9,Cc1nnc(-c2ccc3occc3c2)o1,159 to 160
10,CSc1ccc(-c2cc(C(=O)O)nn2-c2ccc(F)cc2)cc1,199 to 200
11,COc1ccc2c(C)cccc2c1C(F)(F)F,70 to 71
12,Cc1cccnc1C(CO)COc1ccc(CC2SC(=O)NC2=O)cc1 (configuration not stated),182 to 183
13,COc1ccc2c(c1)c(C=O)cn2CCCCl,75 to 76
14,CCC1(CC)c2cc(Br)ccc2-c2ccc(C=O)cc21,126 to 128
15,CC(O)(c1cccc(Cl)c1)c1cc(Cl)ccc1O (configuration not stated),125
16,O=C(OCC1CCC1)c1ncn2c1[C@@H]1CCCN1C(=O)c1c(Cl)cccc1-2,204 to 205
17,CC(=O)NNC1=Nc2sc(Cl)cc2C(c2c(F)cccc2F)=NC1,257 to 260
18,FC(F)Sc1ccc(-n2cnnn2)cc1,94 to 97
19,CC(=O)N1Cc2cnc(C)n2-c2ccc(Cl)cc2C1c1ccccc1F (configuration not stated),185 to 186
20,c1ccc(-n2ncc3c2-c2ccccc2C3)cc1,119 to 120
21,CC(C)SCS(=O)C(C)C (configuration not stated),39 to 40

# Other lines, results leading:
row,melting point [°C],Compound
1,229 to 230,CCn1cc(C(=O)O)c(=O)c2cc(C)sc21
2,280 to 281,O=C(O)c1cc(C(=O)O)c(C(O)=NCCO)cc1C(O)=NCCO
3,71 to 76,CCNC(=O)c1sc(S(C)=O)cc1[Si](C)(C)C (configuration not stated)
4,96 to 98,CCOC(=O)C1=C(COCCNCC(=O)OC)NC(C)=C(C(=O)OC)C1c1cccc(Cl)c1Cl (configuration not stated)
5,161,Cc1cc(C)cc(NCc2ccc3nc(NCCCN4CCCCC4)n(Cc4nc(C)ccc4O)c3c2)c1
6,208 to 210,Cc1cc(C)c2c(c1)C(=O)CC21CNC(=O)C1 (configuration not stated)
7,174 to 176,CC1(C)CCC(NC(N)=O)CC1
8,255 to 257,Nc1sc2c(c1C(=O)c1cccc3ccccc13)CCC2
9,157 to 159,Fc1ccc2[nH]cc(CC3CCN(CCOc4cccc5c4OCCO5)CC3)c2c1
10,133,CC(CO)Oc1cc(Oc2ccc(C(=O)N3CCC3)cc2F)cc(C(=O)O)c1 (configuration not stated)
11,100 to 101,CN1CCCC1CCNc1nccc(Oc2ccc(NC(=O)c3cc(F)cc(N4CCOCC4)c3)c3ccccc23)n1 (configuration not stated)
12,95,Cc1ccnc(-c2ccoc2)c1OC1SCC(O)C(O)C1O (configuration not stated)
13,92 to 93,O=C1CCc2cc(Oc3ccccc3)ccc21
14,190 to 193,CC(=O)S[C@@H]1C[C@@H](C(=O)N(CCc2ccccc2)CC(=O)O)N(S(=O)(=O)c2ccc3ccccc3c2)C1
15,148 to 150,N#Cc1ccc(N2CCC(CO)CC2)cc1
16,263 to 265,O=C(c1c[nH]c2cc([N+](=O)[O-])ccc12)C(F)(F)F
17,196 to 198,N#Cc1cn(-c2ccc(F)cc2F)c(=O)n(SC(Cl)(Cl)Cl)c1=O
18,218 to 220,COc1ccccc1N1CCN([C@@H]2Cc3c(O)cccc3C[C@H]2O)CC1 (relative stereo)
19,101 to 102,CC1(C)N=C(c2ccccc2)CC1c1ccccn1 (configuration not stated)
20,109 to 110,CC(C)(C)C(=O)O[C@H]1[C@H](N2CCCC2)c2cc(C#N)ccc2OC1(C)C (relative stereo)

row,melting point [°C],Compound
1,232 to 234,NC1([C@@H]2CCN(c3nc4c(cc3F)c(=O)c(C(=O)O)cn4[C@@H]3C[C@@H]3F)C2)CC1
2,181 to 182,N#CCc1cccc(C(=O)c2ccc(Cl)cc2)c1N
3,103 to 104,CCOC(=O)c1cnc2ccn(-c3ccncc3)n2c1=O
4,215 to 218,COc1cc2ncnc(N3CCc4ccc(N)cc43)c2cc1OC
5,101 to 102,CC(C)C1CCC(C)(OC(=O)OC2(C)CCC(C(C)C)CC2)CC1 (configuration not stated)
6,121 to 122,COc1ccc(-n2nc(Sc3cccc(C)c3)c(C)c(C#N)c2=O)cc1
7,219,O=C(Nc1c(Cl)ccc2nc(N3CCNCC3)ccc12)C1(C2CCCCC2)CC1
8,95 to 97,CCOC(=O)C1=C(C)NC(=S)N(C(=O)OCC)C1c1cccc(Cl)c1 (configuration not stated)
9,192 to 194,Cc1cn(C(C)(C)C(=O)N(C)C)nc1-c1ccccc1Br
10,103,CCOC(=O)C1=C(N2CCCCC2)N=C(C)C(C(=O)OCC)C1c1ccccc1C#N (configuration not stated)
11,115 to 118,COc1cc(N(C)C(=O)CN2CCN(C)CC2)ccc1N
12,146,O=C(O)c1cccc2c1Oc1c(cccc1C(=O)O)N2
13,164 to 167,COc1cccc2c1Cc1ccccc1C2(CCO)CCO
14,145 to 147,CC(C)OC(=O)N1CCC(c2nc3cc(-c4ccc(C(=O)NCCO)c(F)c4)ccc3o2)CC1
15,75 to 78,COC(=O)[C@@H](OS(=O)(=O)c1ccc(C)cc1)[C@H](O)C1CC1
16,164 to 165,CC1(C)C2CC[C@@]1(C)C(C(=O)N1C(=O)OC(C#CC3CC3)(C(F)(F)F)c3cc(Cl)ccc31)C2 (some centres not stated)
17,152 to 154,O=C1Nc2ccccc2N(C(=O)N2CCCC(CCN3CCCCCC3)C2)c2ncccc21 (configuration not stated)
18,186 to 187,CC(=O)NC[C@H]1CN(c2ccc3c(c2)CCSc2cn[nH]c2-3)C(=O)O1
19,102 to 104,CCOC(=O)C(C)(C(=O)OCC)c1cccc(C(=O)c2ccccc2)c1[N+](=O)[O-]
20,132 to 134,CCOC(=O)c1cnc2nn(C)cc2c1NC(C)CC (configuration not stated)

row,melting point [°C],Compound
1,274 to 275,Cc1c(N)cccc1-c1cn(C)c(=O)c(Nc2ccc(C(=O)N3CCOCC3)cc2)n1
2,188 to 190,CNC(=S)C1(c2cccnc2)CCCCC1=O (configuration not stated)
3,> 300,Cn1cc(-c2cc3cccnc3[nH]2)c2cc(C(=O)O)ccc21
4,150 to 152,CC1(C)CC(=O)C=C(Nc2ccccc2Cl)C1
5,194 to 195,Nc1cccc(CN2CCC(NC(=O)NC(=O)c3ccccc3)CC2)c1
6,279 to 280,COc1ccc(C(=O)Nc2ccc(C(=O)NCc3ccccc3)cc2)cc1C12CC3CC(CC(C3)C1)C2
7,160 to 162,COC(=O)c1[nH]c(=S)n(Nc2cccc(Cl)c2)c1C
8,184 to 185,COc1ccnc(C(=O)c2[nH]c3cc(Cl)ccc3c2NC(=O)N(C)OC)c1
9,182,CCn1c(C=O)c(-c2ccc(F)cc2)c(C(C)C)c1C(=O)O
10,127 to 130,CC(=O)c1cnn2c(-c3cccc(C(F)(F)F)c3)ccnc12
11,162,C[C@@H](O[Si](C)(C)C(C)(C)C)[C@H]1C(=O)N[C@@H]1[C@@H](C)C(=O)C(C)(C)O[Si](C)(C)C
12,119 to 121,N#Cc1c(F)ccc(O)c1F
13,183 to 185,CN1CCN(CC(=O)N2c3ccccc3N(C)C(=O)c3cncnc32)CC1
14,53 to 54,CCOC(C#N)c1ccc2ccccc2c1 (configuration not stated)
15,191 to 193,COc1ccc2c(c1OC)CCC(NC(=O)CCCCC(=O)NCCc1ccccc1)C2 (configuration not stated)
16,172 to 174,CCC(=O)N[C@@H](C)C(=O)N1CCC[C@H]1C(=O)NC1CCCCC1
17,136,Cc1cc(-n2cncn2)c2cccc(OCc3c(Cl)ccc(S(=O)(=O)N4CCC[C@H]4C(=O)NCC4CCN(CCCO)CC4)c3Cl)c2n1
18,80 to 82,CCOc1ccc2[nH]cc(CC(C)(C(=O)OC)[N+](=O)[O-])c2c1 (racemic)
19,163 to 166,O=C1NCCN1C1CCN(CC(O)COc2cccnc2Cl)CC1 (configuration not stated)
